Reference: publication PMC7719162, “Positioning of an unprecedented spiro[5.5]undeca ring system into kinase inhibitor space” (Scientific Reports, 2020)
Like-named read-outs stand apart in the source and are kept apart here.

Assays:
TRKA-TFG (TRK-T3) = molecular target: T1, TRKA-TFG (TRK-T3) (Homo sapiens, UniProt P04629+Q92734); assay: Kinase panel assay (radiolabelled); type: biochemical; conditions: 30 μM compound, ATP 10 μM, duplicates Data 1/Data 2
T1 construct: TFG (fusion partner); purchased Reaction Biology Corp

TNF-α = assay: Secreted TNF-α ELISA in LPS-induced BV-2 cells; type: cell-based, murine
Method: (§1) To evaluate the secreted level of Prostaglandin E2 (PGE2), Tumor necrosis factor (TNF-α), Interleukin (IL-6), Interleukin (IL-1β), BV2 cells were seeded in a 6 well plate at the density of 1.5 × 10^6 cells/well in DMEM and incubated for 24 h. Seeded cells sere pretreated and, activated with LPS for next 24 h. conditioned medium from treated cells were collected and stored at -80 degree for longer period of time. The amount of TNF-α, IL-1β, PGE2,and IL-6 were evaluated using the competitive enzyme immunoassay kit. PGE2 kit were obtained from (Cayman Chemical, Ann Arbor, MI, USA) and TNF-α, IL-1β, and IL-6 were measured using ELISA development kits (R&D Systems, Minneapolis, MN, USA). All the protocol was exactly followed as written in the manual.

TRKA-TPR = TRKA-TPR (Homo sapiens, UniProt P04629); assay: biochemical; conditions: 30 μM compound, ATP 10 μM, duplicates Data 1/Data 2
STK25/YSK1 = molecular target: T2, STK25/YSK1 (Homo sapiens, UniProt O00506); assay: Kinase panel assay (radiolabelled); type: biochemical; conditions: ATP 10 μM
T2 construct: purchased Reaction Biology Corp

PI3Kg (p110g) = molecular target: T3, PI3Kg (p110g) (Homo sapiens, UniProt P48736); assay: Kinase panel assay (lipid kinase); type: biochemical; conditions: 30 μM compound, ATP 10 μM, duplicates Data 1/Data 2
T3 construct: purchased Reaction Biology Corp

AMPK(A1/B2/G1) [1] = molecular target: T4, AMPK(A1/B2/G1) (Homo sapiens, UniProt Q13131); assay: Kinase panel assay (radiolabelled); type: biochemical; conditions: 30 μM compound, ATP 10 μM; duplicates Data 1/Data 2
T4 construct: purchased Reaction Biology Corp

AMPK(A1/B2/G1) [2] = molecular target: T5, AMPK(A1/B2/G1) (Homo sapiens, UniProt O43741+P54619+Q13131); assay: Kinase panel assay (radiolabelled); type: biochemical; conditions: 30 μM compound, ATP 10 μM; duplicates Data 1/Data 2; read-out: % Enzyme Activity (relative to DMSO controls)
T5 construct: purchased Reaction Biology Corp

MTT cell viability assay = type: cell-based, murine; conditions: mouse, BV-2 microglia cells (LPS-activated), mean ± SD
Method: (§2) 3-(4,5-dimethylthiazol-2-yl)-2,5-diphenyl-tetrazolium bromide (MTT) assay was performed to evaluate the cytotoxicity of the samples to the microglia. BV2 cells at the density of 4 × 10^4 cells /well were seeded in the 96 well plate and incubated for 24 h. Seeded cells were pre-treated with different concentration of the samples, and LPS (100 ng/ml) activation was performed after 30 min of compound treatment. Treated plate were incubated for 24 h in the incubator and nitric oxide assay and cell viability assay was performed. Treated cell’s conditioned medium was used to evaluate the NO assay, and the attached cells were used to evaluate the cell viability assay. 50 µL of conditioned medium (CM) from treated cells were transferred to a new 96 well plate for NO assay. This CM was mixed with the equal volume of the mixture of Gries reagent ((1% sulfanilamide and 0.1% N-1-napthylethylenediamine dihydrochloride). NaNO2 was used as standard and the colorimetric change were evidenced by measuring its OD at 540 nm in a microplate reader. The cells in the plate were incubated for 1 h with MTT solution making it the final concentration of […]. Blue stained cells were incubated with 200 ul of DMSO and the solution get changed to purple/formazan color and it was observed by measuring the absorbance at 570 nm in a microplate reader.NG-mono-methyl-L-arginine (L-NMMA), a well-known nitric oxide synthase (NOS) inhibitor, was used as a positive control.

AMPK(A2/B2/G3) [3] = molecular target: T6, AMPK(A2/B2/G3) (Homo sapiens, UniProt P54646); assay: Kinase panel assay (radiolabelled); type: biochemical; conditions: 30 μM compound, ATP 10 μM; duplicates Data 1/Data 2
T6 construct: purchased Reaction Biology Corp

AMPK(A2/B2/G3) [4] = molecular target: T7, AMPK(A2/B2/G3) (Homo sapiens, UniProt O43741+P54646+Q9UGI9); assay: Kinase panel assay (radiolabelled); type: biochemical; conditions: 30 μM compound, ATP 10 μM; duplicates Data 1/Data 2; read-out: % Enzyme Activity (relative to DMSO controls)
T7 construct: purchased Reaction Biology Corp

MST3/STK24 [5] = molecular target: T8, MST3/STK24 (Homo sapiens, UniProt Q9Y6E0); assay: Kinase panel assay (radiolabelled); type: biochemical; conditions: ATP 10 μM
T8 construct: purchased Reaction Biology Corp

PI3K (p110a/p65a) = molecular target: T9, PI3K (p110a/p65a) (Homo sapiens, UniProt P42336); assay: Kinase panel assay (lipid kinase); type: biochemical; conditions: 30 μM compound, ATP 10 μM, duplicates Data 1/Data 2
T9 construct: purchased Reaction Biology Corp

IL-6 = assay: Secreted IL-6 ELISA in LPS-induced BV-2 cells; type: cell-based, murine
Method: as §1

DAPK1 = molecular target: T10, DAPK1 (Homo sapiens, UniProt P53355); assay: Kinase panel assay (radiolabelled); type: biochemical; conditions: ATP 10 μM
T10 construct: purchased Reaction Biology Corp

JNK3 [6] = molecular target: T11, JNK3 (Homo sapiens, UniProt P53779); assay: Kinase panel assay (radiolabelled); type: biochemical; conditions: ATP 10 μM
T11 construct: purchased Reaction Biology Corp

TRKA [7] = molecular target: T12, TRKA (Homo sapiens, UniProt P04629); assay: Kinase panel assay (radiolabelled); type: biochemical; conditions: ATP 10 μM
T12 construct: purchased Reaction Biology Corp

PI3Ka (p110a/p85a) = molecular target: T13, PI3Ka (p110a/p85a) (Homo sapiens, UniProt P42336); assay: Kinase panel assay (lipid kinase); type: biochemical; conditions: 30 μM compound, ATP 10 μM, duplicates Data 1/Data 2
T13 construct: purchased Reaction Biology Corp

ZIPK/DAPK3 = molecular target: T14, ZIPK/DAPK3 (Homo sapiens, UniProt O43293); conditions: cited from earlier work
T14 construct: purchased Reaction Biology Corp

TRKB = molecular target: T15, TRKB (Homo sapiens, UniProt Q16620); conditions: cited from earlier work
T15 construct: purchased Reaction Biology Corp

BV-2 cells = assay: MTT cell viability assay; type: cell-based, murine; conditions: 5 μM compound, % of LPS, mean ± SD
Method: as §2

TRKA [8] = molecular target: T12, TRKA; conditions: cited from earlier work
CDK2/cyclin O = molecular target: T16, CDK2/cyclin O (Homo sapiens, UniProt P24941); conditions: cited from earlier work
T16 construct: purchased Reaction Biology Corp

MST3/STK24 [9] = molecular target: T8, MST3/STK24; conditions: cited from earlier work
P38b/MAPK11 = molecular target: T17, P38b/MAPK11 (Homo sapiens, UniProt Q15759); conditions: cited from earlier work
T17 construct: purchased Reaction Biology Corp

JNK3 [10] = molecular target: T11, JNK3; conditions: cited from earlier work
[11] = read-out: % Enzyme Activity (relative to DMSO controls)
[12] = 30 μM compound, duplicates Data 1/Data 2
[13] = 30 μM compound, duplicates Data 1/Data 2, read-out: % Enzyme Activity (relative to DMSO controls)
[14] = 30 μM, average ± SD, read-out: % Residual Activity at 30 μM

T8 sequence (Q9Y6E0 whole entry): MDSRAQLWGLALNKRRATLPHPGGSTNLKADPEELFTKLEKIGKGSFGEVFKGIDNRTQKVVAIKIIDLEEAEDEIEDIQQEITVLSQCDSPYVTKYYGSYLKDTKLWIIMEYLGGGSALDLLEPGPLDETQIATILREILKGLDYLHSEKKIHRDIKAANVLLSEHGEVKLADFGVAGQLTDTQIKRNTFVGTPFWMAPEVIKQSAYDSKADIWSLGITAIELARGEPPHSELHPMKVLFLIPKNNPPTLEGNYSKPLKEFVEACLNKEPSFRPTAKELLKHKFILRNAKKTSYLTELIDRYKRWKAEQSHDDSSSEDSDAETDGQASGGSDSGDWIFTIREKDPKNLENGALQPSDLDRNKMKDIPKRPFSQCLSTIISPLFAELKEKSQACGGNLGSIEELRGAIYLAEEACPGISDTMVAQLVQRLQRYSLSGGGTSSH
T2 sequence (O00506 whole entry): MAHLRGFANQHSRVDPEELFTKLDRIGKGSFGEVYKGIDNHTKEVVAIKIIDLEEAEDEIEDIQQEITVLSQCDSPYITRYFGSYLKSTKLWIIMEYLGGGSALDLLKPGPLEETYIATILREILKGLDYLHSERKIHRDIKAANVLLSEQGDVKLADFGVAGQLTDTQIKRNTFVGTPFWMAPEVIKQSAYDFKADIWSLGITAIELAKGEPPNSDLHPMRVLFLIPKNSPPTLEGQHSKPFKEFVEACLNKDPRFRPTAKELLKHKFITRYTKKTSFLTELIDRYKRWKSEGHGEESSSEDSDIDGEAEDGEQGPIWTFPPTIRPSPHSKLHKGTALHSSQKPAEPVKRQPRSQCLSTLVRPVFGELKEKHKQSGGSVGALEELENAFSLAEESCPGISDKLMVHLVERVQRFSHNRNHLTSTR
T11 sequence (P53779 whole entry): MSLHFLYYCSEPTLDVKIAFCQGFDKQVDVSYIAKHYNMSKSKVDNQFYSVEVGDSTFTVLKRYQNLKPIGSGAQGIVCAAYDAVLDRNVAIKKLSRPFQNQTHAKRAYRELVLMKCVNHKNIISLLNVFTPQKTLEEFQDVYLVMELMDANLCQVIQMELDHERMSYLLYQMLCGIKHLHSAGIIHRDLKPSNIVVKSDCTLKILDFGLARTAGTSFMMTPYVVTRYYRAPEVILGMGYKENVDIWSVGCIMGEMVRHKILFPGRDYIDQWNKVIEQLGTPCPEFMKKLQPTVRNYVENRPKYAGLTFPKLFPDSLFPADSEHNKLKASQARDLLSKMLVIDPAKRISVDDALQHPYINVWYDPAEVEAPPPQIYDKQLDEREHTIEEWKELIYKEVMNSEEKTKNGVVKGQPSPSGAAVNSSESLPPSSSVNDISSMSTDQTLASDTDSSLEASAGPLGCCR
T10 sequence (P53355 whole entry): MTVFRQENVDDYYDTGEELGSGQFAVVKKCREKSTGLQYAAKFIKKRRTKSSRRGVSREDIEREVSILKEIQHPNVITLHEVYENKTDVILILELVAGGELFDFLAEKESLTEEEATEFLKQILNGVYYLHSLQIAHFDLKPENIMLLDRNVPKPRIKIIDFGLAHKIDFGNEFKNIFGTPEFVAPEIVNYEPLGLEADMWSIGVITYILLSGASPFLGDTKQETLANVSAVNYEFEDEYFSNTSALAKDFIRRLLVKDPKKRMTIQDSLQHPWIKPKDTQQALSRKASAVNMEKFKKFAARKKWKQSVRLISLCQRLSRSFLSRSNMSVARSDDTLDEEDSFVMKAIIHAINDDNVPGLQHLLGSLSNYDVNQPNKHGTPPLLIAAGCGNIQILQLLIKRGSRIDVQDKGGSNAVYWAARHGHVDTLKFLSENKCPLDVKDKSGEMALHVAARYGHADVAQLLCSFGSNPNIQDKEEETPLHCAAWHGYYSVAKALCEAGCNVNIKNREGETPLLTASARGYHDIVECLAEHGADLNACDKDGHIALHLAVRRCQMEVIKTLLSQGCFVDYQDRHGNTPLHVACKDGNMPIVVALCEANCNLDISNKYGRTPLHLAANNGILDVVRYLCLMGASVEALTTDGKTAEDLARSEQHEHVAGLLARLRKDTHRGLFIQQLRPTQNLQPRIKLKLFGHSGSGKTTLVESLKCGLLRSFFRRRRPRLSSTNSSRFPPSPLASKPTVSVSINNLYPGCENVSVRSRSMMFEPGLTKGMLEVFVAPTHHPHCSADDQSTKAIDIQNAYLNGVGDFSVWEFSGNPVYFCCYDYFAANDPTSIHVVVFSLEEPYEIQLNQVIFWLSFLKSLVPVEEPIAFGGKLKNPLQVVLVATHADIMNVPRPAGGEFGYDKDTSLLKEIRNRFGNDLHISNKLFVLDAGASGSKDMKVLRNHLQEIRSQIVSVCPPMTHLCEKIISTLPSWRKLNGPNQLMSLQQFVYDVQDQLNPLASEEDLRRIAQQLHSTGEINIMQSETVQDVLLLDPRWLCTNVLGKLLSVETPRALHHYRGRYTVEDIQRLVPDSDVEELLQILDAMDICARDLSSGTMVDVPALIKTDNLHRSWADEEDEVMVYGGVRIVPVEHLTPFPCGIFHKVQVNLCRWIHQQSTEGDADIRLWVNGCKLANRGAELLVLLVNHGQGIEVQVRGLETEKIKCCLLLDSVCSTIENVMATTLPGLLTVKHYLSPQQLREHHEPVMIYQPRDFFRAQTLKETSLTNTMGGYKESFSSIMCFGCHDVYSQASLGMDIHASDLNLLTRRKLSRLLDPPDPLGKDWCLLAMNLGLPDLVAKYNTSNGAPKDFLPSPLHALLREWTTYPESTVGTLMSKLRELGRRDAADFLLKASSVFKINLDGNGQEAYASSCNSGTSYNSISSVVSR
T12 sequence (P04629 33-796): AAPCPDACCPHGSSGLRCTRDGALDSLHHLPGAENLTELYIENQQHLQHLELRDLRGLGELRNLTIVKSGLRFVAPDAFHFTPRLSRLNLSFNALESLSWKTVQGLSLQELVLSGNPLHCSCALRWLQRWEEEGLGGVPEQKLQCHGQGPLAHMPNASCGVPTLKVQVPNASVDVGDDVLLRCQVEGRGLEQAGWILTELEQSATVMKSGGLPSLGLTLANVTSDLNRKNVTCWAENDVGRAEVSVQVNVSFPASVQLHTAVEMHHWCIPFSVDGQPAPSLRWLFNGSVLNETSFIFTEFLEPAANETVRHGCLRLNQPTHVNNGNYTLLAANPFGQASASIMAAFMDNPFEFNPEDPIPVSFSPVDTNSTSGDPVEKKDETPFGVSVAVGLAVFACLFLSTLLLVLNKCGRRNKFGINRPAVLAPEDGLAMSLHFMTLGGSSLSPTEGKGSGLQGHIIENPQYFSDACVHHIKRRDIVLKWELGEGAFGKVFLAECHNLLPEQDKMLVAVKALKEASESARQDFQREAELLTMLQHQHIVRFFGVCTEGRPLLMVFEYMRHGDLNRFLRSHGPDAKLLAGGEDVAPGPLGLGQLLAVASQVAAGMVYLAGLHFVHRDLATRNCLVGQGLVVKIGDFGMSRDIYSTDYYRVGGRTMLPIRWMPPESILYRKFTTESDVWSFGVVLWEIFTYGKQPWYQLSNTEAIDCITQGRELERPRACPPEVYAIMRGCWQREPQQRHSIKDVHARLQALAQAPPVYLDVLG
T1 sequence (Q92734+P04629 fused): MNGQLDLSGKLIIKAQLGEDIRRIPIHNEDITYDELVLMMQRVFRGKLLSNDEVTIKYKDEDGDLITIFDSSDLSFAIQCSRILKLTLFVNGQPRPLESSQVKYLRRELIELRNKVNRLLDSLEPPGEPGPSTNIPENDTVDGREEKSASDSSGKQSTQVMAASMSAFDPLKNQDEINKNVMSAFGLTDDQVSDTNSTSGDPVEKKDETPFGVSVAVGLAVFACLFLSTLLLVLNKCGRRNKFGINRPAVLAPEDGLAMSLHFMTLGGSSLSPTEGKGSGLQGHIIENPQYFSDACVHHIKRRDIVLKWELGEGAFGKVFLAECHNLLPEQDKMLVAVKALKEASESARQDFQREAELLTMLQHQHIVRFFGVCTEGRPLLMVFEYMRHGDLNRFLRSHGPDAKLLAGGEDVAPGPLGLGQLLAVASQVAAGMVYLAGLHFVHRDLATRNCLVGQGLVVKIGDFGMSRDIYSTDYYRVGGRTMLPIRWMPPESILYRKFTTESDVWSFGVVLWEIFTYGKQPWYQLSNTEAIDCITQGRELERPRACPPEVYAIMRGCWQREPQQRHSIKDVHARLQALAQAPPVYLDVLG
Chain of TRKA-TPR (P04629 399-796): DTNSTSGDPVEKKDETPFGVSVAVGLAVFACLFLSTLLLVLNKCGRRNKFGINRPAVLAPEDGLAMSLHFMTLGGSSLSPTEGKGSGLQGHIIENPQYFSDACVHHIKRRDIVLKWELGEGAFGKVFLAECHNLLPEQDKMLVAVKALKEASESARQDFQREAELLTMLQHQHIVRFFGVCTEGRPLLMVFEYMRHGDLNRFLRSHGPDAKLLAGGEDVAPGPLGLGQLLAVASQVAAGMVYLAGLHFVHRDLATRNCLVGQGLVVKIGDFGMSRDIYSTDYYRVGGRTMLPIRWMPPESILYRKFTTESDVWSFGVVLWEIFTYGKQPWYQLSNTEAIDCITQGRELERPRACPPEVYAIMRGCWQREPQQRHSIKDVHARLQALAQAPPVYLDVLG
Chain of TRKA-TPR (P12270 1-192 partner): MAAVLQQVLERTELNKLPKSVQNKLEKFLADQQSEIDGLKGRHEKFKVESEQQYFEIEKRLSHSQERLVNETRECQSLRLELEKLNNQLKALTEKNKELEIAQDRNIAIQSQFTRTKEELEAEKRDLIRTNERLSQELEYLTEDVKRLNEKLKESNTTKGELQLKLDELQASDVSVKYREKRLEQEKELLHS

With `O=C1C=CC2(C=C1)OCC(Cc1cn(-c3cccc(Cl)c3)nn1)C(=O)N2c1ccccc1` (centres unmarked) [2d, 3-((1-(3-Chlorophenyl)-1H-1,2,3-triazol-4-yl)methyl)-5-phenyl-1-oxa-5-azaspiro[5.5]undeca-7,10-diene-4,9-dione] the “% Enzyme Activity (relative to DMSO controls)” value (TRKA-TFG (TRK-T3)) was 102.82%, the remaining activity at 30 µM (TRKA-TFG (TRK-T3); [11]) was 109% and the “TNF-α level” value (TNF-α) was “concentration-dependent manner”. For the same compound, the “% Enzyme Activity (relative to DMSO controls)” value (TRKA-TPR) was 101.99%, the remaining activity at 30 µM (TRKA-TPR; [11]) was 106% and the “% Enzyme Activity (relative to DMSO controls)” value (STK25/YSK1; [12]) was 61.07%. The remaining activity at 30 µM (STK25/YSK1; [13]) was 63.3%, the remaining activity at 30 µM (STK25/YSK1; [14]) was 62.2 ± 1.6% and the “% Enzyme Activity (relative to DMSO controls)” value (PI3Kg (p110g)) was 85.15%. For the same compound, the remaining activity at 30 µM (PI3Kg (p110g); [11]) was 87.4%, the “% Enzyme Activity (relative to DMSO controls)” value (AMPK(A1/B2/G1) [1]) was 107.43% and the remaining activity at 30 µM (AMPK(A1/B2/G1) [2]) was 110%. The viability at 24 h, 1 µM (MTT cell viability assay; 1 μM compound) was 112 ± 19.8%, the viability at 24 h, 5 µM (MTT cell viability assay; 5 μM compound, % of LPS) was 90 ± 6% and the “% Enzyme Activity (relative to DMSO controls)” value (AMPK(A2/B2/G3) [3]) was 88.96%. For the same compound, the remaining activity at 30 µM (AMPK(A2/B2/G3) [4]) was 95.8%, the “% Enzyme Activity (relative to DMSO controls)” value (MST3/STK24 [5]; [12]) was 89.43% and the remaining activity at 30 µM (MST3/STK24 [5]; [13]) was 94.2%. The remaining activity at 30 µM (MST3/STK24 [5]; [14]) was 91.8 ± 3.4%, the “% Enzyme Activity (relative to DMSO controls)” value (PI3K (p110a/p65a)) was 82.25% and the remaining activity at 30 µM (PI3K (p110a/p65a); [11]) was 83.8%. The “IL-6 level” value (IL-6) was “concentration-dependent manner”, the “% Enzyme Activity (relative to DMSO controls)” value (DAPK1; [12]) was 73.41% and the remaining activity at 30 µM (DAPK1; [13]) was 75.8%. For the same compound, the remaining activity at 30 µM (DAPK1; [14]) was 74.6 ± 1.7%, the “% Enzyme Activity (relative to DMSO controls)” value (JNK3 [6]; [12]) was 95.42% and the remaining activity at 30 µM (JNK3 [6]; [13]) was 95.5%. For the same compound, the remaining activity at 30 µM (JNK3 [6]; [14]) was 95.4 ± 0.1%, the “% Enzyme Activity (relative to DMSO controls)” value (TRKA [7]; [12]) was 115.47% and the remaining activity at 30 µM (TRKA [7]; [13]) was 119%. For the same compound, the remaining activity at 30 µM (TRKA [7]; [14]) was 117 ± 2.6%, the “% Enzyme Activity (relative to DMSO controls)” value (PI3Ka (p110a/p85a)) was 250.92% and the remaining activity at 30 µM (PI3Ka (p110a/p85a); [11]) was 252%.

In the case of `O=C1C=CC2(C=C1)OCC(Cc1cc(C(F)(F)F)cc(C(F)(F)F)c1)C(=O)N2c1ccccc1` (racemic) [1c], the “% Residual Activity at 30 μM” value (ZIPK/DAPK3) is listed as 101.8 ± 0.8%, the “% Residual Activity at 30 μM” value (TRKB) is listed as 94.1 ± 1.7% and the “Cell Viability (%)” value (BV-2 cells) is listed as 92 ± 13%. The “% Residual Activity at 30 μM” value (TRKA [8]) was 98.3 ± 0.1%, the “% Residual Activity at 30 μM” value (CDK2/cyclin O) was 43.1 ± 1.0% and the “% Residual Activity at 30 μM” value (MST3/STK24 [9]) was 58.3 ± 0.7%. The “% Residual Activity at 30 μM” value (P38b/MAPK11) was 87.0 ± 1.1% and the “% Residual Activity at 30 μM” value (JNK3 [10]) was 72.0 ± 2.0%.
